Source: patent publication US20050065118A1, “Organosulfur inhibitors of tyrosine phosphatases” (priority 2001, published 2005)
“And” between values parts separate entries of the source, which are not always exact repeats. Equal entries are not always repeated.

Columns and labels:
PTP-1B = target: T1, PTP-1B (Homo sapiens, UniProt P18031); assay: PTP-1B inhibition, Malachite Green assay with pIRP substrate; format: biochemical
T1 sequence (P18031 1-435): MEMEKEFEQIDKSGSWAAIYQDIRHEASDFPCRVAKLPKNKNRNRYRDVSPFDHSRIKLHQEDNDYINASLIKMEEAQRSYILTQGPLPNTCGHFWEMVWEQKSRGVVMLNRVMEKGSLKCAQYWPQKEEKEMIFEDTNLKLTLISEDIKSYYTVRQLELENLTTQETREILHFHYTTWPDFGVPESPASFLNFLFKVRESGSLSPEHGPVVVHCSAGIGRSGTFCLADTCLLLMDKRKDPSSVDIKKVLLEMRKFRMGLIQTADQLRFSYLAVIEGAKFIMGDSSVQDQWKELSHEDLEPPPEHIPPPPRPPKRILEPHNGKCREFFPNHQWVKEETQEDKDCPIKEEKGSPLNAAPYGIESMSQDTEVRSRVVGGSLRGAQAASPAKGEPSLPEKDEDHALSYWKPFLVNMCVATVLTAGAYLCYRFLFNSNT
Procedure: The compounds of the present invention are evaluated for biological activity as inhibitors of PTP-1B using, for example, a Malachite Green assay with pIRP as a substrate. The pIRP substrate includes a phosphotyrosine residue, and PTP-1B cleaves the phosphate group from the tyrosine, yielding the peptide and phosphate. The rate of the enzymatic reaction is determined by measuring the phosphate released during the reaction.
The reactants for the assay include 20 mM Tris-HCl, pH 7.4, 2 mM EDTA (ethylaminediamine tetraacetic acid) and 2 mM DTT (dithiothreitol) as the assay buffer, and 1 mM pIRP in assay buffer (1 mg in 0.59 mL buffer) as the substrate stock. The Malachite Green solution is prepared by adding 30 μL of 1% Tween 20 to 1 mL of Malachite Green Solution A. The stock of each compound to be tested is made up as 10 mM in DMSO (dimethylsulfoxide).
The compound to be tested is prepared as 1:5, 1:15.8, 1:50 and 1:158 dilutions from stock in a total volume of […]. The reaction mixtures are prepared in a 96-well microtiter plate as 27.5 μL assay buffer, […] of the diluted compound (to a final concentration of 100, 32, 10 and 3.2 μM), 10 μL of the pIRP substrate solution (to a final concentration of 200 μM) and 10 μL PTPase in assay buffer. The reactants are mixed well, the plate placed in a water bath at 30° C. and incubated for 3 minutes. The reaction is then terminated by adding 100 μL of Malachite Green solution per well, color is allowed to develop for 15 minutes, and the A650 is measured by conventional means.
Unless otherwise indicated, this assay was used to determine activity for the selected compounds whose activity is recorded in the Table.

TC-PTP = target: T2, TC-PTP (Homo sapiens, UniProt P17706); assay: TC-PTP inhibition, pNPP tyrosine phosphatase assay; format: biochemical; details: two values in a cell = two determinations
T2 construct: purchased NEB
T2 sequence (P17706 1-317 limits assumed): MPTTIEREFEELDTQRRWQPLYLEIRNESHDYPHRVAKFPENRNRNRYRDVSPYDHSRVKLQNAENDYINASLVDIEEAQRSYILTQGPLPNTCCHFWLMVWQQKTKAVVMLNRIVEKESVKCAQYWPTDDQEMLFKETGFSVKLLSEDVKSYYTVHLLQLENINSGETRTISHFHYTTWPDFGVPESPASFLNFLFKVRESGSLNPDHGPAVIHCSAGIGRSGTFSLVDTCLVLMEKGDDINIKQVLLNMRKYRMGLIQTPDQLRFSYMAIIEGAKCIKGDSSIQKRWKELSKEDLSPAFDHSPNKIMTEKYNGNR
Procedure: (§1) Alternatively, a pNPP assay can be used to screen compounds for tyrosine phosphatase inhibitory activity as follows: A 5× stock of pNPP (p-nitrophenol phosphate) substrate is prepared as 50 mM pNPP in assay buffer prepared as described above. Various tyrosine phosphatase solutions can be prepared as follows: • PTP-1B (SBI purified, 1 mg/mL) as a 1:250 dilution (to a final concentration of 4 μg/mL); • TC-PTP (NEB, 1000 units in 100 μL) as a 1:50 dilution (to a final concentration of 2U/10 μL (4 μg/mL)); • CD45 (Calbiochem, 20 μg, 400 units in 100 μL) as a 1:50 dilution (to a final concentration of 0.8U/10 μL (4 μg/mL)); • LAR (NEB, 1000 units in 200 μL) as a 1:75 dilution (to a final concentration of 0.7U/10 μL (4 μg/mL)); and • PTP-β (UBI, #14-350, 10,000 units, 40 μg/571 μL) as a 1:17.5 dilution (to a final concentration of 10U/10 μL (4 μg/mL));
(§2) The compound to be tested is prepared as 1:16.7 and 1:50 dilutions from stock in a total volume of […] to give final concentrations of 626 and 200 μM. The reaction mixtures are prepared in a 96-well microtiter plate (on ice) as 55 μL assay buffer, 5 μL of the diluted compound (to a final concentration of 31.3 and 10 μM), 20 μL of the pNPP substrate solution (to a final concentration of 10 mM) and 20 μL PTease in assay buffer. The reactants are mixed well, the plate placed in a water bath at 30° C. and incubated for 10 minutes. The reaction is then terminated by adding 100 μL of 2M K2CO3 per well, and the absorbance is measured at 405 nm by conventional means.

PTP-β = target: T3, PTP-β (Homo sapiens, UniProt P23467); assay: PTP-β inhibition, pNPP tyrosine phosphatase assay; format: biochemical
T3 construct: purchased UBI #14-350
T3 sequence (P23467 1643-1997 limits assumed): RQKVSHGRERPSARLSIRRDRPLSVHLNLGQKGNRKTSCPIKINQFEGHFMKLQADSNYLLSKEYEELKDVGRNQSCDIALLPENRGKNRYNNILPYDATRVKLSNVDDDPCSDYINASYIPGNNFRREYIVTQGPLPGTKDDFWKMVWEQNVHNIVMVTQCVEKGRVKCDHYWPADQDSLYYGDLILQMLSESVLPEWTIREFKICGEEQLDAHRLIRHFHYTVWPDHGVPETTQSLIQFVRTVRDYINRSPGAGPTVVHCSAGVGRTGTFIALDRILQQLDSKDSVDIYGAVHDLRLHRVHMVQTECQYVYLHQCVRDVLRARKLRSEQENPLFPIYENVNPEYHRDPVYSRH
Procedure: as §1, §2

CD-45 = target: T4, CD-45 (Homo sapiens, UniProt P08575); assay: CD45 inhibition, pNPP tyrosine phosphatase assay; format: biochemical
T4 construct: purchased Calbiochem
T4 sequence (P08575 609-1306 limits assumed): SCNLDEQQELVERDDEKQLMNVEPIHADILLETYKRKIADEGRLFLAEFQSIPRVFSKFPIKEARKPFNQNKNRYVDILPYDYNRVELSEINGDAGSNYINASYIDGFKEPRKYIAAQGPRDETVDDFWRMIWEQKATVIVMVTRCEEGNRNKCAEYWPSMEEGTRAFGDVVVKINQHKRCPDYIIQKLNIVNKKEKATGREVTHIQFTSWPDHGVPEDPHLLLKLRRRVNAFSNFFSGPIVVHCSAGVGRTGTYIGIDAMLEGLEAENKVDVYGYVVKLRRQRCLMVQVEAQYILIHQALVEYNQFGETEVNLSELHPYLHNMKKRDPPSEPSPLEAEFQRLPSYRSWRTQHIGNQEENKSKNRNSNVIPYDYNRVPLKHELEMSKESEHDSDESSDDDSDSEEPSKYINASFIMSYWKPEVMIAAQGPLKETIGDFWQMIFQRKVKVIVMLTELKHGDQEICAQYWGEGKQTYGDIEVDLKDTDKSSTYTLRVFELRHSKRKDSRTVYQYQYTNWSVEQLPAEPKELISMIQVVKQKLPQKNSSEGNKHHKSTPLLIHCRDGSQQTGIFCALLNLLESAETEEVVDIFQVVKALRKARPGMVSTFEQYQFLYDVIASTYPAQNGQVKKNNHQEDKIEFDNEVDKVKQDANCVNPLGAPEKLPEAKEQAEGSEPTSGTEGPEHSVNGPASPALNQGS
Procedure: as §1, §2

Row | SMILES | IC50 (PTP-1B) [µM] | IC50 (TC-PTP) | IC50 (PTP-β) [µM] | IC50 (CD-45) [µM] | melting point
1 | O=C(O)c1ccc(Cn2nc(-c3cccc(Oc4cccc(C(F)(F)F)c4)c3)sc2=Nc2ccc(Cl)c(Cl)c2)cc1 [Compound 187, 4-{2-(3,4-Dichloro-phenylimino)-5-[3{3-trifluoromethyl-phenoxy)-phenyl]-[1,3,4]thiadiaziol-3-ylmethyl}-benzoic acid] | 1 | 1 µM | 5 | 5 | 
2 | C/C(=N\OCC(=O)O)c1cccc(Nc2nnc(-c3cccc(Oc4cccc(C(F)(F)F)c4)c3)s2)c1 [Compound 190, [1-(3-{5-[3-(3-Trifluoromethyl-phenoxy)-phenyl]-[1,3,4]thiadiazol-2-ylamino}-phenyl)-ethylideneaminooxy]acetic acid] | 5 |  |  |  | 220 °C (dec.)
3 | O=C(O)c1cccc(Oc2cccc(-c3nnc(Nc4ccc(Cl)c(Cl)c4)s3)c2)c1 [Example 7, (3-(3-{5[(3,4-dichlorophenyl)amino]-1,3,4-thiadiazol-2-yl}phenoxy)benzoic acid)] | 12 | 15 µM | 31 | 17 | 258 to 259 °C
4 | Clc1ccc(Nc2nnc(-c3cccc(Oc4cccc(-c5nnn[nH]5)c4)c3)s2)cc1Cl [Example 14, {5-[3-(3-(1H-1,2,3,4-tetraazol-5-yl)phenoxy)phenyl](1,3,4-thiadiazol-2-yl)}(3,4-dichlorophenyl)amine] | 5 | 12 µM | 24 | 10 | 
5 | COc1cccc(-c2nn3cc(-c4ccc(-c5ccccc5)cc4)nc3s2)c1 [Example 16, (3-methoxy-1-(6-(4-phenylphenyl)imidazolo(2,1-b)1,3,4-thiadiazolin-2-yl)benzene)] | 12 |  | > 100 | 30 | 
6 | CCOc1cccc(-c2nnc(Nc3ccc(Br)c(Cl)c3)s2)c1 [Example 66, (4-bromo-3-chlorophenyl)[5-(3-ethoxyphenyl)(1,3,4-thiadiazol-2-yl)]amine] | 7 | 20 µM | > 100 | 25 | 204 to 205 °C

The remaining lines, values ahead:

Row | IC50 (PTP-1B) [µM] | IC50 (TC-PTP) | IC50 (PTP-β) [µM] | IC50 (CD-45) [µM] | melting point | SMILES
7 | 7 | 14 µM and 8 µM | > 100 | 80 |  | O=[N+]([O-])c1cccc(-c2nnc(Nc3cccc(Br)c3)s2)c1 [Example 80, (3-bromophenyl)[5-(3-nitrophenyl)(1,3,4-thiadiazol-2-yl)]amine]
8 | 6 | 20 µM and 12 µM | > 100 | 20 |  | Clc1cc(Nc2nnc(-c3cccc(Oc4ccccc4)c3)s2)ccc1Br [Example 135]
9 | 1 |  |  |  | 172 to 174 °C | O=C(O)C(=O)Nc1ccc(CN(c2ccc(Cl)c(Cl)c2)c2nnc(-c3cccc(Oc4cccc(C(F)(F)F)c4)c3)s2)cc1 [Example 169]
10 | 2 |  |  |  | 137 to 142 °C (dec.) | O=C(O)CCCn1nnnc1-c1cccc(Oc2cccc(-c3nnc(Nc4ccc(Cl)c(Cl)c4)s3)c2)c1 [Example 171]
11 | 0.8 | 1.6 µM | 30 | 14 | 259 to 262 °C | O=C(O)c1ccc(N/N=C/c2cccc(Oc3cccc(-c4nnc(Nc5ccc(Cl)c(Cl)c5)s4)c3)c2)cc1 [Example 172]
